Measurements taken from patent publication US20250101436A1, “APTAMERS AND SMALL MOLECULE LIGANDS” (MeiraGTx UK II Limited, priority 2021, published 2025).

How the values were obtained:
12C6-1 riboswitch = experiment: Firefly luciferase assay, Luci-12C6-1 riboswitch construct in transfected HEK 293 cells; type: cell-based, human; details: for luciferase expression response: HEK 293 cells transfected with Luci-12C6-1; for activation of 12C6-1 and derivative riboswitches in regulating Luciferase expression (FIG. 4d): HEK 293 cells
Source text: Riboswitch construct: Aptamers were synthesized by Integrated DNA Technologies, Inc. The synthesized aptamer sequence, here referred to as aptamer sequence 12C6-1, contains a putative TPP aptamer sequence (AP008955.1/944373-944459; CP030117.1/954080-954166; CP023474.1/977011-977097) with C at 5′ end and a complementary G at 3′ end flanking the putative TPP aptamer sequence: […] […] (SEQ ID NO: 1). Golden Gate cloning strategy (New England Biolabs, NEB) was used to clone the synthesized aptamer sequences into an intron-exon-intron cassette to replace the guanine aptamer in the G17 riboswitch cassette (see SEQ ID NO: 15 recited in WO 2016/126747, which is incorporated herein in its entirety) to generate riboswitch construct Luci-12C6-1.

N5-12G6 riboswitch = experiment: Firefly luciferase assay, N5-12G6 riboswitch in HEK293 cells; details: for fold induction at 2 µM / fold induction at 25 µM / fold induction at 3.3 µM: Homo sapiens; for fold induction at 2 µM: HEK293, read-out: Fold induction 2 μM (HEK), 12G6 riboswitch, luciferase, HEK293, 2 μM; for fold induction at 25 µM: HEK293, read-out: Fold induction 25 μM (HEK), 12G6 riboswitch, luciferase, HEK293, 25 μM; for fold induction at 3.3 µM: HEK293, read-out: Fold induction 3.3 μM (HEK), 12G6 riboswitch, luciferase, HEK293, 3.3 μM
Protocol: Transfection: 3.5×10^4 human embryonic kidney (HEK) 293 cells were plated in a 96-well flat bottom plate the day before transfection. Plasmid DNA (500 ng) was added to a tube or a 96-well U-bottom plate. Separately, TransIT-293 reagent (Mirus; 1.4 L) was added to 50 μL Optimum I media (Life Technologies) and allowed to sit for 5 minutes at room temperature (RT). Then, 50 μL of this diluted transfection reagent was added to the DNA, mixed, and incubated at RT for 20 min. Finally, 7 μL of this solution was added to a well of cells in the 96-well plate. Four hours after transfection, medium containing transfection solution was replaced by medium with either TPP or fursultiamine as aptamer ligands.
Firefly luciferase assay of cultured cells: Twenty-four hours after media change, plates were removed from the incubator, and equilibrated to RT for several minutes on a lab bench, then aspirated. Glo-lysis buffer (Promega, 100 μL, RT) was added, and the plates allowed to remain at RT for at least 5 minutes. Then, the well contents were mixed by 50 μL trituration, and 20 μL of each sample was mixed with 20 μL of bright-glo reagent (Promega) that had been diluted to 10% in glo-lysis buffer. 96 wells were spaced on an opaque white 384-well plate. Following a 5 min incubation at RT, luminescence was measured using a Tecan machine with 500 ms read time. The luciferase activity was expressed as mean arbitrary light units (ALU)±S.D., and fold induction was calculated as the quotient of the luciferase activity obtained from cells with TPP or analog compound treatment divided by the luciferase activity obtained from cells without TPP or analog compound treatment.

## Cc1ncc(C[n+]2csc(CCO[P@](=O)(O)OP(=O)(O)O)c2C)c(N)n1 [TPP, Thiamine Pyrophosphate, reference compound]
12C6-1 riboswitch
  luciferase expression response: dose-dependent response

## CN(C)CCNCc1ccc2nccnc2c1 [compound 011]
12C6-1 riboswitch
  activation of 12C6-1 and derivative riboswitches in regulating Luciferase expression (FIG. 4d): bind 12C6-1 and activate derivative riboswitches

## C=CN(CCN(C)C)Cc1ccc2nccnc2c1 [compound 009]
12C6-1 riboswitch
  activation of 12C6-1 and derivative riboswitches in regulating Luciferase expression (FIG. 4d): bind 12C6-1 and activate derivative riboswitches

## O=C(O)CCC(=O)Nc1ccc2nccnc2c1 [compound 003]
12C6-1 riboswitch
  activation of 12C6-1 and derivative riboswitches in regulating Luciferase expression (FIG. 4d): bind 12C6-1 and activate derivative riboswitches

## O=C(CNc1cnccc1N1CCNCC1)Nc1ccc2nccnc2c1 [compound 005]
12C6-1 riboswitch
  activation of 12C6-1 and derivative riboswitches in regulating Luciferase expression (FIG. 4d): bind 12C6-1 and activate derivative riboswitches

## CC(=C(CCO)SSCC1CCCO1)N(C=O)Cc1cnc(C)nc1N (stereo in doubt) [fursultiamine, reference compound]
12C6-1 riboswitch
  luciferase expression response: induced luciferase gene expression in a dose-dependent manner

## C[C@@H]1CN(c2c(Cl)cncc2NCc2ccc3nccnc3c2)CCN1 [compound 056, (R)-5-chloro-4-(3-methylpiperazin-1-yl)-N-(quinoxalin-6-ylmethyl)pyridin-3-amine]
N5-12G6 riboswitch
  fold induction at 2 µM: 12.9

## Fc1c(CNc2cncc(Cl)c2N2CCNCC2)ccc2nccnc12 [compound 078, 5-chloro-N-((5-fluoroquinoxalin-6-yl)methyl)-4-(piperazin-1-yl)pyridin-3-amine]
N5-12G6 riboswitch
  fold induction at 2 µM: 6.1

## Cc1cncc(NCc2ccc3nccnc3c2)c1N1CCNCC1 [compound 023, 5-Methyl-4-(piperazin-1-yl)-N-(quinoxalin-6-ylmethyl)pyridin-3-amine]
N5-12G6 riboswitch
  fold induction at 2 µM: 67.4

## Clc1cc2nccnc2cc1CNc1cnccc1N1CCNCC1 [compound 013, N-((7-Chloroquinoxalin-6-yl)methyl)-4-(piperazin-1-yl)pyridin-3-amine]
N5-12G6 riboswitch; 12G6 riboswitch, HEK293
  regulation of luciferase expression (FIG. 4e): regulate expression in a dose-dependent fashion
N5-12G6 riboswitch
  fold induction at 25 µM: 314

## Clc1cc2nccnc2cc1CNc1cnccc1N1C[C@H]2C[C@@H]1CN2 [compound 098, 4-((1R,4R)-2,5-diazabicyclo[2.2.1]heptan-2-yl)-N-((7-chloroquinoxalin-6-yl)methyl)pyridin-3-amine]
N5-12G6 riboswitch
  fold induction at 2 µM: 4.5

## FC(F)(F)c1cc(N2CCNCC2)c(NCc2ccc3nccnc3c2)cn1 [compound 117, 4-(piperazin-1-yl)-N-(quinoxalin-6-ylmethyl)-6-(trifluoromethyl)pyridin-3-amine]
N5-12G6 riboswitch
  fold induction at 2 µM: 30.6

## C[C@@H]1CNCCN1c1ccncc1NCc1cc2nccnc2cc1Cl [compound 062, (R)—N-((7-chloroquinoxalin-6-yl)methyl)-4-(2-methylpiperazin-1-yl)pyridin-3-amine]
N5-12G6 riboswitch
  fold induction at 2 µM: 8

## C[C@H]1CNCCN1c1c(Cl)cncc1NCc1ccc2nccnc2c1 [compound 061, (S)-5-chloro-4-(2-methylpiperazin-1-yl)-N-(quinoxalin-6-ylmethyl)pyridin-3-amine]
N5-12G6 riboswitch
  fold induction at 2 µM: 6

## c1cc(C2CCNCC2)c(NCc2ccc3nccnc3c2)cn1 [compound 017, 4-(Piperidin-4-yl)-N-(quinoxalin-6-ylmethyl)pyridin-3-amine]
N5-12G6 riboswitch
  fold induction at 25 µM: 130

## Cl.c1cc(N2CCNCC2)c(CNCc2ccc3nccnc3c2)cn1 [compound 008]
12C6-1 riboswitch
  activation of 12C6-1 and derivative riboswitches in regulating Luciferase expression (FIG. 4d): bind 12C6-1 and activate derivative riboswitches

## C[C@@H]1CN(c2ccncc2NCc2cc3nccnc3cc2Cl)CCN1 [compound 058, (R)—N-((7-chloroquinoxalin-6-yl)methyl)-4-(3-methylpiperazin-1-yl)pyridin-3-amine]
N5-12G6 riboswitch
  fold induction at 2 µM: 6.1

## Fc1cncc(NCc2cc(Cl)c3nccnc3c2)c1N1CCNCC1 [compound 081, N-((8-chloroquinoxalin-6-yl)methyl)-5-fluoro-4-(piperazin-1-yl)pyridin-3-amine]
N5-12G6 riboswitch
  fold induction at 2 µM: 3.9

## Fc1cc(CNc2cnccc2OC2CNC2)cc2nccnc12 [compound 028, 4-(Azetidin-3-yloxy)-N-((8-fluoroquinoxalin-6-yl)methyl)pyridin-3-amine]
N5-12G6 riboswitch
  fold induction at 2 µM: 33

## Fc1cc2nccnc2cc1CNc1cncc(F)c1N1CCNCC1 [compound 082, 5-fluoro-N-((7-fluoroquinoxalin-6-yl)methyl)-4-(piperazin-1-yl)pyridin-3-amine]
N5-12G6 riboswitch
  fold induction at 2 µM: 24.7

## C[C@@H]1CN(c2ccncc2NCc2cc(F)c3nccnc3c2)CCN1 [compound 060, (R)—N-((8-fluoroquinoxalin-6-yl)methyl)-4-(3-methylpiperazin-1-yl)pyridin-3-amine]
N5-12G6 riboswitch
  fold induction at 2 µM: 1.7

## C[C@H]1CN(c2ccncc2NCc2cc(F)c3nccnc3c2)CCN1 [compound 059, (S)—N-((8-fluoroquinoxalin-6-yl)methyl)-4-(3-methylpiperazin-1-yl)pyridin-3-amine]
N5-12G6 riboswitch
  fold induction at 2 µM: 15.8

## Cc1cc2nccnc2cc1CNc1cnccc1O[C@@H]1CCNC1 [compound 123, (R)—N-((7-methylquinoxalin-6-yl)methyl)-4-(pyrrolidin-3-yloxy)pyridin-3-amine]
N5-12G6 riboswitch
  fold induction at 2 µM: 83.9

## C[C@H]1CNCCN1c1ccncc1NCc1ccc2nccnc2c1 [compound 041, (S)-4-(2-methylpiperazin-1-yl)-N-(quinoxalin-6-ylmethyl)pyridin-3-amine]
N5-12G6 riboswitch
  fold induction at 3.3 µM: 5

## C[C@@H]1CNCCN1c1ccncc1NCc1ccc2nccnc2c1 [compound 020, (R)-4-(2-Methylpiperazin-1-yl)-N-(quinoxalin-6-ylmethyl)pyridin-3-amine]
N5-12G6 riboswitch
  fold induction at 2 µM: 31.2
  fold induction at 3.3 µM: 52

## c1cc(N2C3CNCC2C3)c(NCc2ccc3nccnc3c2)cn1 [compound 031, 4-(3,6-diazabicyclo[3.1.1]heptan-6-yl)-N-(quinoxalin-6-ylmethyl)pyridin-3-amine]
N5-12G6 riboswitch
  fold induction at 25 µM: 17.9
